From patent publication US6562606B1, “Methods and compositions for disrupting the epithelial barrier function” (The Regents of the University of California, priority 1993, dated 2003)
Structures can show the parent of a compound that is named as a salt. Where two headings read alike, the source gives them in different places.

Tests used:
[1] = tested on: intact pig skin; assay: TEWL of intact pig skin under occlusion (Hilltop chamber), testosterone formulations; type: in vivo; details: for barrier integrity / barrier permeability (TEWL) vs occlusion and TS controls, in words: Tables 9-11; for 6 h Post TEWL (x baseline): 6 h after removal of formulation
[2] = tested on: hairless mice; assay: Epidermal barrier disruption: marker (propylene glycol, cyclophenol) profile in stratum corneum by IR and tape-stripping; type: in vivo
Experimental: To determine the epidermal barrier disruption by application of fluindostatin, an animal testing was conducted in the manner as follows: Hairless mice (two animals, B and C) were topically pretreated with fluindostatin for 7 days. In a control group, animals (two) were only treated with a vehicle. […] The parameters for the vehicle in all of the experiments herein are as follows: […] N=14. After treatment, the skin surface was cleaned and stratum corneum allowed to recover to its normal state of hydration for 2 hours. An IR spectrum of the hydrophilic marker compound, propylene glycol, was recorded, and a single tape-stripping was conducted at the treated skin site. Another spectrum was recorded followed by the removal of a. second tape strip. The same sequence was repeated 10 times. FIGS. 4A, 4B show the test results. […] In essentially the same manner, cyclophenol (CP) was used as a.lipophilic marker. Tape-stripping was repeated 7 times after application of fluindostatin.

[3] = tested on: hairless mouse; assay: TEWL recovery after oleic acid treatment; type: in vivo; details: 30 μl of 1.5% fluindostatin or 0.25% TOFA in propylene glycol/ethanol 7:3, two hours after 5% oleic acid (FIG. 6A, 6B)
Experimental: A female hairless mouse, aged 8 weeks, was treated with oleic acid. After oleic acid treatment, fluindostatin and/or 5-tetradecyloxy-2-furancarboxylic acid (TOFA) was applied to the animal.
TEWL (trans-epidermal water loss) was measured before and after treatment at convenient time intervals when the animal was alert. An Evaporimeter (ServoMed) was used.
First, TEWL of the left (LHS) and right (RHS) dorsal sides was measured. Then, the animal was anesthetized by 0.25 ml chloral hydrate (CH) IP injection. At t=0, an aliquot of 30 μl oleic acid solution (5% in propylene glycol/ethanol 7:3 (v/v)) was applied directly to both sides of the animal (˜1.5×3 cm) using a Hamilton syringe. […] TEWL was measured thereafter every 2 or 3 hours.

[4] = tested on: hairless mice; assay: TEWL (water permeability) 4 hours after application to acetone-treated skin; type: in vivo; details: for stratum corneum water permeability (TEWL), increase vs vehicle in words: statistical significance vs vehicle, concentrations and skin treatment as in Tables 2-7
[5] = Transdermal LHRH delivery: plasma level by radioimmunoassay, ratio to vehicle; details: ratio of LHRH plasma levels (RIA) after tested delivery compound(s) to vehicle; acid lipase vs its vehicle MES
[6] = topical; literature (J. Clin. Invest. 88, 1991); cited from earlier work
[7] = solitary agent, Conc 0.5 %, acetone-treated skin
[8] = solitary agent, Conc 1.0 %, acetone-treated skin
[9] = statistical significance vs vehicle, concentrations and skin treatment as in Tables 2-7
[10] = lidocaine, solitary enhancer Conc 0.5 %, acetone-treated skin

With `CCCCCCCC/C=C\CCCCCCCC(=O)O[C@H]1CC[C@@]2(C)C(=CC[C@H]3[C@@H]4CC[C@H]([C@H](C)CCCC(C)C)[C@@]4(C)CC[C@@H]32)C1` [CHO, Cholesterol Oleate] as the molecule, how does the “24 h TEWL (x baseline)” value ([1]; Table 9, 0.05 weight %, 24 h) read?
The value was 1.53 x baseline.

And the “48 h TEWL (x baseline)” value ([1]; Table 9, 0.05 weight %)?
The value was 2.16 x baseline.

And the “72 h TEWL (x baseline)” value ([1]; Table 9, 0.05 weight %)?
The value was 2.71 x baseline.

What about the “barrier integrity / barrier permeability (TEWL) vs occlusion and TS controls, in words” value ([1]; intact pig skin) of the same molecule?
The value was “comparable to or superior to both controls”.

For `CCN(CC)CCCC(C)Nc1ccnc2cc(Cl)ccc12` (stereo not shown) [CQ, Chloroquine], which “barrier integrity / barrier permeability (TEWL) vs occlusion and TS controls, in words” value ([1]; intact pig skin) is on record?
Its value is “increase barrier permeability to TS to a degree significantly superior to that provided by either control at all time points”.

Which results are given for `CC(C)n1c(/C=C/C(O)CC(O)CC(=O)O)c(-c2ccc(F)cc2)c2ccccc21` (stereo not shown) [Fluindostatin]?
disruption of the stratum corneum barrier (both marker data sets) ([2]; PG and CP markers): caused significant disruption of the stratum corneum barrier; cyclophenol (lipophilic marker) concentration profile in stratum corneum ([2]; tape-stripping repeated 7 times, vs vehicle control (FIG. 5A, 5B)): a lower, constant concentration level of CP; propylene glycol (hydrophilic marker) concentration profile in stratum corneum ([2]; topical pretreatment 7 days, IR spectra over 10 tape-strippings, vs vehicle control (FIG. 4A, 4B)): lower absolute levels of PG in the stratum corneum, and a constant concentration level of PG; recovery of the barrier (TEWL) after oleic acid disruption [3]: delay the recovery of the barrier; TEWL (T = 4 hours) ([4]; 4 h): 431 ± 46; stratum corneum water permeability (TEWL), increase vs vehicle in words [4]: significantly increased it

Which results are given for `CC[C@H](C)C(=O)O[C@H]1CCC=C2C=C[C@H](C)[C@H](CC[C@@H]3C[C@@H](O)CC(=O)O3)[C@H]21` [MEV, Mevastatin]?
24 h TEWL (x baseline) ([1]; Table 9, 0.08 weight %, 24 h after first administration): 1.75 x baseline; 48 h TEWL (x baseline) ([1]; Table 9, 0.08 weight %): 2.39 x baseline; 72 h TEWL (x baseline) ([1]; Table 9, 0.08 weight %): 3.72 x baseline; 24 h TEWL (x baseline) ([1]; Table 9, 0.12 weight %, 24 h): 1.79 x baseline; 48 h TEWL (x baseline) ([1]; Table 9, 0.12 weight %): 2.75 x baseline; 72 h TEWL (x baseline) ([1]; Table 9, 0.12 weight %): 3.72 x baseline; 6 h Post TEWL (x baseline) ([1]; Table 10, 0.006 weight %): 1.24 ± 0.29 x baseline; 24 h TEWL (x baseline) ([1]; Table 10, 0.006 weight %, 24 h): 1.55 ± 0.29 x baseline; 48 h TEWL (x baseline) ([1]; Table 10, 0.006 weight %): 2.13 ± 0.38 x baseline; 72 h TEWL (x baseline) ([1]; Table 10, 0.006 weight %): 1.75 ± 0.21 x baseline; 6 h Post TEWL (x baseline) ([1]; Table 10, 0.10 weight %): 2.25 ± 0.8 x baseline; 24 h TEWL (x baseline) ([1]; Table 10, 0.10 weight %, 24 h): 1.93 ± 0.58 x baseline; 48 h TEWL (x baseline) ([1]; Table 10, 0.10 weight %): 3.77 ± 1.42 x baseline; 72 h TEWL (x baseline) ([1]; Table 10, 0.10 weight %): 3.04 ± 0.86 x baseline; 6 h Post TEWL (x baseline) ([1]; Table 10, 0.25 weight %): 1.90 ± 0.28 x baseline; 24 h TEWL (x baseline) ([1]; Table 10, 0.25 weight %, 24 h): 1.47 ± 0.18 x baseline; 48 h TEWL (x baseline) ([1]; Table 10, 0.25 weight %): 2.66 ± 1.00 x baseline; 72 h TEWL (x baseline) ([1]; Table 10, 0.25 weight %): 2.43 ± 0.51 x baseline; barrier integrity / barrier permeability (TEWL) vs occlusion and TS controls, in words ([1]; intact pig skin): decreased barrier integrity to a substantial degree over that provided by either control; capacity to deliver testosterone (TS) vs both controls, in words ([1]; intact pig skin, said to be shown in Table 11): superior capacity of MEV to deliver testosterone (TS) over that of both controls

Which “TEWL (T = 4 hours)” value [4, 7] does the source give for `CCCCCCCC/C=C\CCCCCCCC(=O)NCCO` [N-oleoylethanolamine, N-Oleoylethanolamine] here?
Its value is 720 ± 229.

And the “stratum corneum water permeability (TEWL), increase vs vehicle in words” value [4]?
Its value is “very significantly increased water permeability”.

What about the “24 h TEWL (x baseline)” value ([1]; Table 9, 0.03 weight %, 24 h) of the same molecule?
The value was 1.46 x baseline.

What about the “48 h TEWL (x baseline)” value ([1]; Table 9, 0.03 weight %) of the same molecule?
The value was 2.25 x baseline.

What about the “72 h TEWL (x baseline)” value ([1]; Table 9, 0.03 weight %) of the same molecule?
The value was 3.15 x baseline.

What about the “24 h TEWL (x baseline)” value ([1]; Table 9, 0.10 weight %, 24 h) of the same molecule?
The value was 1.67 x baseline.

And the “48 h TEWL (x baseline)” value ([1]; Table 9, 0.10 weight %)?
Its value is 2.45 x baseline.

And the “72 h TEWL (x baseline)” value ([1]; Table 9, 0.10 weight %)?
Its value is 3.68 x baseline.

What about the “barrier integrity / barrier permeability (TEWL) vs occlusion and TS controls, in words” value ([1]; intact pig skin) of the same molecule?
The value was “increases barrier permeability in a dose response manner”.

For `CCCCCCCCCCCCCCOc1ccc(C(=O)O)o1` [TOFA, 5-tetradecyloxy-2-furancarboxylic acid], which “recovery of the barrier (TEWL) after oleic acid disruption” value [3] is on record?
The value was “delay the recovery of the barrier”.

And the “TEWL (T = 4 hours)” value [4, 8]?
Its value is 520 ± 31.

And the “stratum corneum water permeability (TEWL), increase vs vehicle in words” value [4]?
The value was “very significantly increased water permeability”.

For `CC(C)CCC[C@@H](C)[C@H]1CC[C@H]2[C@@H]3CC=C4C[C@@H](OS(=O)(=O)O)CC[C@]4(C)[C@H]3CC[C@]12C` [cholesterol sulfate, Cholesterol sulfate], which “TEWL (T = 4 hours)” value [4, 8] is on record?
Its value is 508 ± 169.

And the “stratum corneum water permeability (TEWL), increase vs vehicle in words” value [4]?
The value was “significantly increased it”.

What about the “lidocaine delivery, increase vs vehicle in words” value (“lidocaine delivery, increase” below) [9] of the same molecule?
The value was “statistically very significant increase in lidocaine delivery”.

What does the source list for `O[C@H]1[C@H](O)[C@@H](O)[C@@H]2O[C@@H]2[C@@H]1O` [conduritol-β-epoxide, Conduritol-β-epoxide]?
water permeability (TEWL), increase vs vehicle in words ([4]; frequently applied to intact skin): statistically significant increased lidocaine delivery and water permeability; TEWL (T = 4 hours) ([4]; solitary agent, Conc 4.0 %, intact skin, TID, total 7-8 doses): 184 ± 39; TEWL (T = 4 hours) ([4]; solitary agent, Conc 4.0 %, single application, acetone-treated skin): 253 ± 33; stratum corneum water permeability (TEWL), increase vs vehicle in words [4]: failing even nearly significantly to increase either water permeability or lidocaine delivery

With `CCCC[C@@H](C)[C@@H](OC(=O)C[C@@H](CC(=O)O)C(=O)O)[C@H](C[C@@H](C)C[C@H](O)CCCC[C@@H](O)C[C@H](O)[C@H](C)N)OC(=O)C[C@@H](CC(=O)O)C(=O)O` [fumonisin B1, Fumonisin B1] as the molecule, how does the “TEWL (T = 4 hours)” value [4, 7] read?
Its value is 440 ± 149.

What about the “Plasma Conc. (% dose/ml plasma)” value [10] of the same molecule?
The value was 0.24 ± 0.03 % dose/ml plasma.

And the “Total Body Conc. (%)” value [10]?
The value was 14.58 ± 0.73%.

What about the “lidocaine delivery, increase” value [9] of the same molecule?
The value was “very significantly increased lidocaine delivery”.

And the “LHRH Delivery Ratio vs. Vehicle” value [5]?
The value was 3.8.

For `CC[C@H](C)C(=O)O[C@H]1C[C@@H](C)C=C2C=C[C@H](C)[C@H](CC[C@@H]3C[C@@H](O)CC(=O)O3)[C@H]21` [lovastatin, Lovastatin], which “recovery of barrier function, assessed as transepidermal water loss” value [6] is on record?
Its value is “impair the recovery of barrier function”.

Which “TEWL (T = 4 hours)” value [4, 8] does the source give for `N[C@@H](CCl)C(=O)O` [β-chloroalanine, β-Chloroalanine] here?
Its value is 263 ± 35.

And the “stratum corneum water permeability (TEWL), increase vs vehicle in words” value [4]?
Its value is “did not increase stratum corneum water permeability”.

What about the “lidocaine delivery, increase” value [9] of the same molecule?
The value was “significant increase”.

And the “recovery of barrier function, assessed as transepidermal water loss” value [6]?
Its value is “slow barrier recovery”.

For Bromophenacylbromide, which “water permeability (TEWL), increase vs vehicle in words” value ([4]; solitary agent on intact skin) is on record?
Its value is “but not water permeability”.

And the “TEWL (T = 4 hours)” value ([4]; solitary agent, Conc 0.15 %, intact skin)?
The value was 98 ± 47.

And the “TEWL (T = 4 hours)” value ([4]; solitary agent, Conc 0.2 %, acetone-treated (prepermeabilized) skin)?
The value was 690 ± 177.

What about the “stratum corneum water permeability (TEWL), increase vs vehicle in words” value [4] of the same molecule?
Its value is “very significant increases of both lidocaine delivery and water permeability”.

For Gramicidin D [GD], which “barrier integrity / barrier permeability (TEWL) vs occlusion and TS controls, in words” value ([1]; intact pig skin) is on record?
The value was “increase barrier permeability to TS to a degree significantly superior to that provided by either control at all time points”.

With “N-Palmitoyl-DL-dihydroxysphingosine [N-palmitoyl-DL-hydroxysphingosine]” as the molecule, how does the “TEWL (T = 4 hours)” value [4, 7] read?
The value was 793 ± 124.

And the “stratum corneum water permeability (TEWL), increase vs vehicle in words” value [4]?
The value was “very significantly increased water permeability”.

And the “Plasma Conc. (% dose/ml plasma)” value (mouse, in vivo)?
Its value is 0.21 ± 0.03 % dose/ml plasma.

And the “Total Body Conc. (%)” value (mouse, in vivo)?
The value was 6.88 ± 0.69%.

What about the “lidocaine delivery, increase” value (mouse, in vivo) of the same molecule?
The value was “significantly increased it”.
